Six compounds from patent US10392389B2, “Heterocyclic compounds for the inhibition of PASK” (BioEnergenix, LLC, priority 2012, dated 2019) can be followed below.

Usually IC50 stands for the point on the concentration scale where inhibition reaches its midpoint.

Where only a bound is given, the exact number is not on record here.

Series [1] can be described thus: In vivo pharmacokinetics in the Sprague Dawley rat. Conditions: formulation as in Table 5. The procedure: Pharmacokinetics of a PASK Inhibitor
The in vivo pharmacokinetics of Examples 12, 17, 43, and 51 were evaluated in the Sprague Dawley rat. Blood samples were collected at 0.083, 0.25, 0.5, 1, 2, 4, 6, 8, and 24 hours and the samples were analyzed for test compounds content using LC/MS/MS. The data was submitted to pharmacokinetic analysis using WinNonLin software and the observed and calculated pharmacokinetic parameters are shown in Table 5 for each compound.

A further series has as its target T1, PASK (Invitrogen) (Homo sapiens, UniProt Q96RG2).
T1 construct: IC50 Kinase Domain; purchased Invitrogen
Nature of the series: PAS Kinase FRET Assay. In kind it is biochemical. Conditions: PAS kinase TR-FRET assay (665 nm/615 nm); read-out: IC50 Kinase Domain. The method, boiled down: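 PASK phosphorylates a ULight-peptide with ATP in 50 mM HEPES, 10 mM MgCl2, 1 mM EGTA, 0.01% Tween-20, 2 mM DTT for 2 h at 25° C in the dark. Compounds are added as 4× serial dilutions (top 12×10^−5 M at 4×). After stopping, an Eu anti-phospho-substrate antibody is added for 1 h and TR-FRET is read at 665/615 nm.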
For orientation: Time-resolved FRET reads energy transfer from a long-lived donor to a nearby acceptor.

Another series addresses T2, PASK (UniProt #Q96RG2; human recombinant N-terminal GST tagged construct, residues 879-1323) (Homo sapiens, UniProt Q96RG2).
T2 construct: N-terminal GST tagged construct, residues 879-1323; GST (N); host or cells: insect cells
The series is described as follows: PASK ATP Radiochemical Assay. Conditions: 33P-ATP, Myelin Basic Protein substrate, read-out: IC50 Kinase Domain. Format: biochemical. The method in brief:
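Insect-cell GST-PASK (residues 879-1323, 5 nM final) phosphorylating 20 μM myelin basic protein with ^33P-ATP (0.01 μCi/μl final). Buffer 20 mM HEPES pH 7.5, 10 mM MgCl2, 1% DMSO. Reaction ran 120 min at room temperature; P81 filter binding and scintillation counting.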

The target in series [2] is T3, PIM1 (NP_002639; human full-length protein, 6×His tagged) (Homo sapiens, UniProt P11309).
T3 construct: human full-length protein, 6×His tagged; 6xHis; host or cells: insect cells
The series is described as follows: Biochemical Assay for PIM1 Activity. Conditions: 33P-ATP radiochemical assay, S6K/Rsk2 peptide 2 substrate. The method in brief:
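His-tagged full-length human PIM1 from insect cells (1.0 nM final) was reacted with S6K/Rsk2 peptide 2 (20 μM) and ³³P-ATP in Hepes pH 7.5 buffer with 1% DMSO for 120 min at room temperature. Phosphorylated peptide was captured on P81 paper and counted by scintillation.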

Series [3] has as its target T4, CK2a2 (NP_001887; human full-length protein, GST tagged) (Homo sapiens, UniProt P19784).
T4 construct: human full-length protein, GST tagged; GST; host or cells: insect cells
Nature of the series: Biochemical Assay for CK2 Activity. The settings on record: 33P-ATP radiochemical assay, CK2 sub [RRRDDDSDDD]. The method in brief:
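Radiometric filter-binding assay: GST-tagged full-length CK2a2 (1.2 nM) with 20 μM RRRDDDSDDD peptide in HEPES pH 7.5, MgCl2, EGTA, DTT, 1% DMSO; reaction started with ^33P-ATP and run 120 min at room temperature. Phosphorylated peptide captured on P81 paper, washed, and counted by scintillation.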

T3 sequence (P11309 whole entry): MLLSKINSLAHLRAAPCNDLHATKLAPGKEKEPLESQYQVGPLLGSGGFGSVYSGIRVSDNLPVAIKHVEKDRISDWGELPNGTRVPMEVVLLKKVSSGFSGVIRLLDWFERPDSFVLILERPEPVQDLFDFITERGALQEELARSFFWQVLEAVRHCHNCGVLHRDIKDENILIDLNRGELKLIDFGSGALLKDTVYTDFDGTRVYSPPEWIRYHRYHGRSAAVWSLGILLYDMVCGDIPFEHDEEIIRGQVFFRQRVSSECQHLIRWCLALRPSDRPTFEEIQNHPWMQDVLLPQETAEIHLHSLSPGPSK
T1 sequence (Q96RG2 999-1251 limits assumed): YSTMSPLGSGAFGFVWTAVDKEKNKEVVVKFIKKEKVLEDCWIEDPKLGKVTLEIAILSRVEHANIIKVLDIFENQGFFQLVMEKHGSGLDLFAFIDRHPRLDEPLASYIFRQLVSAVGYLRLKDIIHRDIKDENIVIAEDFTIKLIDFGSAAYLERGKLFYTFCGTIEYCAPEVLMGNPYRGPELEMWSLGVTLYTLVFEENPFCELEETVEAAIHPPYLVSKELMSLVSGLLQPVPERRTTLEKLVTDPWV
T4 sequence (P19784 whole entry): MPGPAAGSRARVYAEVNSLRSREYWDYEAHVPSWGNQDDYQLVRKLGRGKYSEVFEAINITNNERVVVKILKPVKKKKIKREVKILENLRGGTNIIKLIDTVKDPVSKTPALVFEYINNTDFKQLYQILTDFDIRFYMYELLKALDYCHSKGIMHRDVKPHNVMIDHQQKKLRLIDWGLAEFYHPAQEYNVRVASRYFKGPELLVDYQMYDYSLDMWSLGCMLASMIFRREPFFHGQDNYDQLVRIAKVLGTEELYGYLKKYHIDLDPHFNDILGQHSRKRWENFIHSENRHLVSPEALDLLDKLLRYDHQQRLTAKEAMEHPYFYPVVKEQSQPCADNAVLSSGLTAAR
T2 sequence (Q96RG2 879-1323, stated change not applied): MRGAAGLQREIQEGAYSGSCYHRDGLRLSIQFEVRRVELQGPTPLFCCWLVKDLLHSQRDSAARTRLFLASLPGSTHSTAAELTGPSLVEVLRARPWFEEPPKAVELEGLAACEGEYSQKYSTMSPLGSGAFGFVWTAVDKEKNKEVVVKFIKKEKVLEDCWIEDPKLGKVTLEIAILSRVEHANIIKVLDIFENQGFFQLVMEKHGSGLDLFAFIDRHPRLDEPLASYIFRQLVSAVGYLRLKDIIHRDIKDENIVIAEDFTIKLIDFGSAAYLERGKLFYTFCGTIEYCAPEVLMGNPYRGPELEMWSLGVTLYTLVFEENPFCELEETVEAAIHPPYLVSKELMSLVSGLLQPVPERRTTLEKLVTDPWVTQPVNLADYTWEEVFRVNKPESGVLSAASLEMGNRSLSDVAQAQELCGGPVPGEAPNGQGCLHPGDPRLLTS

As for `CCn1ncc2cc(-c3cc(=O)n4ncc(-c5ncc(C)o5)c4[nH]3)ccc21` [Example 12, 5-(1-ethyl-1H-indazol-5-yl)-3-(5-methyl-1,3-oxazol-2-yl)-4H,7H-pyrazolo[1,5-a]pyrimidin-7-one], in series [1] (IV, 3 mg/kg), the “Cl (clearance)” value came out at 8.76 mL/min/kg, the “Vss (volume of distribution)” value is given as 0.35 L/kg and the “t1/2 (half-life)” value stood at 3.75 h. In series [1] (PO, 10 mg/kg), the “F (oral bioavailability)” value is given as 46.5%, the “Tmax (Time to maximum blood concentration after an oral dose)” value (shortened to “Tmax”) turned out to be 0.5 h and the “t1/2 (half-life)” value turned out to be 2.38 h. The IC50 on PASK (Invitrogen) was ≤ 10 µM.
In the case of `COc1cc(-c2cc(=O)n3ncc(-c4ncc(C)o4)c3[nH]2)ccc1Cl` [Example 17, 5-(4-chloro-3-methoxyphenyl)-3-(5-methyl-1,3-oxazol-2-yl)-4H,7H-pyrazolo[1,5-a]pyrimidin-7-one], the IC50 at PASK is ≤ 10 µM. In addition, in series [1] (IV, 3 mg/kg), the “Cl (clearance)” value was 6.19 mL/min/kg, the “Vss (volume of distribution)” value came to 0.61 L/kg and the “t1/2 (half-life)” value stood at 8.3 h. Also, in series [1] (PO, 10 mg/kg), the “F (oral bioavailability)” value was 42%, the “Tmax” value turned out to be 4 h and the “t1/2 (half-life)” value came out at 2.12 h. Moreover, the IC50 in series [2] was ≤ 10 µM. For the same compound, the IC50 in series [3] is ≤ 10 µM. For the same compound, on PASK (Invitrogen), the IC50 is ≤ 10 µM.
Regarding `CCn1ncc2cc(-c3cc(=O)n4ncc(-c5nc(C)no5)c4[nH]3)ccc21` [Example 43, 5-(1-ethyl-1H-indazol-5-yl)-3-(3-methyl-1,2,4-oxadiazol-5-yl)-4H,7H-pyrazolo[1,5-a]pyrimidin-7-one], in series [1] (IV, 3 mg/kg), the “Cl (clearance)” value was 23.9 mL/min/kg, the “Vss (volume of distribution)” value turned out to be 0.719 L/kg and the “t1/2 (half-life)” value came out at 1.62 h. Also, in series [1] (PO, 10 mg/kg), the “F (oral bioavailability)” value amounted to 44.7%, the “Tmax” value worked out at 0.5 h and the “t1/2 (half-life)” value was determined as 3.35 h. For the same compound, on PASK (Invitrogen), the IC50 is ≤ 10 µM.
As for `COc1cc(-c2cc(=O)n3ncc(-c4ccnn4C)c3[nH]2)ccc1Cl` [Example 51, 5-(4-chloro-3-methoxyphenyl)-3-(1-methyl-1H-pyrazol-5-yl)pyrazolo[1,5-a]pyrimidin-7(4H)-one], in series [1] (IV, 3 mg/kg), the “Cl (clearance)” value was determined as 62 mL/min/kg, the “Vss (volume of distribution)” value is 0.71 L/kg and the “t1/2 (half-life)” value was determined as 0.38 h. Also, in series [1] (PO, 10 mg/kg), the “F (oral bioavailability)” value was determined as 1.17%, the “Tmax” value was 0.25 h and the “t1/2 (half-life)” value turned out to be 2.62 h. Besides, the IC50 at PASK (Invitrogen) is ≤ 10 µM.
On to `Cn1nccc1-c1cnn2c(=O)cc(-c3ccc(Cl)c(Cl)c3)[nH]c12` [Example 98, 5-(3,4-dichlorophenyl)-3-(1-methyl-1H-pyrazol-5-yl)pyrazolo[1,5-a]pyrimidin-7(4H)-one], for which the IC50 (on PASK; in series [2]; in series [3]; on PASK (Invitrogen)) was ≤ 10 µM throughout.
Consider `Cc1noc(-c2cnn3c(=O)cc(-c4ccc(Cl)c(Cl)c4)[nH]c23)n1` [Example 100, 5-(3,4-dichlorophenyl)-3-(3-methyl-1,2,4-oxadiazol-5-yl)-4H,7H-pyrazolo[1,5-a]pyrimidin-7-one], for which the IC50 (on PASK; in series [2]; in series [3]; on PASK (Invitrogen)) was ≤ 10 µM each time.
